The values that follow come from patent publication US9365574B2, “Soluble guanylate cyclase activators” (Merck Sharp & Dohme Corp., priority 2010, dated 2016).

This experiment deals with Spontaneously hypertensive rats (SHR). Kind of experiment: Acute Efficacy in Spontaneously Hypertensive Rats (SHR), telemetry blood pressure. Format: in vivo, rat. The essentials:
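Male SHR with aortic telemetry catheters, 14-day recovery, conscious and freely moving; single oral gavage in 10% transcutol/20% Cremophor/70% water. BP sampled 30 s every 10 min, hourly averages minus prior-day vehicle baseline; value is maximum peak SBP decrease at stated mg/kg PO dose.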

SMILES strings stand for the structures.

For the compound `CNc1nc(-c2nn(CCC(F)(F)C(F)(F)F)c3cc(Cl)ccc23)nc2c1C(C)(C(=O)NC1CC1)C(=O)N2` (stereo not shown) [Example 257, 2-[6-chloro-1-(3,3,4,4,4-pentafluorobutyl)-1H-indazol-3-yl)-N-cyclopropyl-5-methyl-4-(methylamino)-6-oxo-6,7-dihydro-5H-pyrrolo[2,3-d]pyrimidine-5-carboxamide], the “Maximum peak decrease of systolic blood pressure (SBP) in SHR, Category” value (“Maximum peak decrease” for short) (single oral dose 0.3 mpk P.O.) is “A (Category A=SBP in SHRs<25 mmHg)”.

As to `CC(C)n1nc(C2(C)C(=O)Nc3nc(-c4nn(CCC(F)(F)C(F)(F)F)c5cc(Cl)ccc45)nc(N)c32)oc1=O` (stereo not shown) [Example 171, 4-Amino-2-[6-Chloro-1-(3,3,4,4,4-Pentafluorobutyl)-1H-Indazol-3-yl]-5-Methyl-5-[5-Oxo-4-(Propan-2-yl)-4,5-Dihydro-1,3,4-Oxadiazol-2-yl]-5,7-Dihydro-6H-Pyrrolo[2,3-D]Pyrimidin-6-One], the “Maximum peak decrease” value (single oral dose 0.3 mpk P.O.) was “C (Category C=SBP in SHRs>40 mmHg)”.

In the case of `CC1(C(=O)NC2CCC2)C(=O)Nc2nc(-c3nn(CCC(F)(F)C(F)(F)F)c4cc(Cl)ccc34)nc(N)c21` (stereo not shown) [Example 196, 4-amino-2-[6-chloro-1-(3,3,4,4,4-pentafluorobutyl)-1H-indazol-3-yl]-N-cyclobutyl-5-methyl-6-oxo-6,7-difluoro-5H-pyrrolo[2,3-d]pyrimidine-5-carboxamide], the “Maximum peak decrease” value (single oral dose 0.3 mpk P.O.) is “B (Category B=SBP in SHRs 25-40 mmHg)”.

As for `CC1(C(=O)NC2CC2)C(=O)Nc2nc(-c3nn(CCC(F)(F)C(F)(F)F)c4ncc(Cl)cc34)nc(N)c21` (stereo not shown) [Example 267, 4-amino-2-[5-chloro-1-(3,3,4,4,4-pentafluorobutyl)-1H-pyrazolo[3,4-b]pyridin-3-yl]-N-cyclopropyl-5-methyl-6-oxo-6,7-dihydro-5H-pyrrolo[2,3-d]pyrimidine-5-carboxamide], the “Maximum peak decrease” value (single oral dose 0.3 mpk P.O.) is on record as “B (Category B=SBP in SHRs 25-40 mmHg)”.

For `Cn1cc(NC(=O)C2(C)C(=O)Nc3nc(-c4nn(CCOC(F)(F)F)c5ncccc45)nc(N)c32)cn1` (stereo not shown) [Example 215, 4-amino-5-methyl-N-(1-methyl-1H-pyrazol-4-yl)-6-oxo-2-{1-[2-(trifluoromethoxy)ethyl]-1H-pyrazolo[3,4-b]pyridin-3-yl}-6,7-dihydro-5H-pyrrolo[2,3-d]pyrimidine-5-carboxamide], the “Maximum peak decrease” value (single oral dose 0.3 mpk P.O.) is “B (Category B=SBP in SHRs 25-40 mmHg)”.

`NC(=O)C1(C2CC2)C(=O)Nc2nc(-c3nn(CCC(F)(F)C(F)(F)F)c4ncccc34)nc(N)c21` (stereo not shown) [Example 162, 4-Amino-5-Cyclopropyl-6-Oxo-2-[1-(3,3,4,4,4-Pentafluorobutyl)-1H-Pyrazolo[3,4-B]Pyridin-3-yl]-6,7-Dihydro-5H-Pyrrolo[2,3-D]Pyrimidine-5-Carboxamide]: under “dose 0.3 mpk”, the “Maximum SBP reduction” value came out at 26 ± 7 mmHg. The “Maximum peak decrease” value (single oral dose 0.3 mpk P.O.) is on record as “B (Category B=SBP in SHRs 25-40 mmHg)”.

As for `CC1(C(=O)NC2CC2)C(=O)Nc2nc(-c3nn(CCC(F)(F)F)c4nc(C5CC5)ccc34)nc(N)c21` (stereo not shown) [Example 224, 4-amino-N-cyclopropyl-2-[6-cyclopropyl-1-(3,3,3-trifluoropropyl)-1H-pyrazolo[3,4-b]pyridin-3-yl]-5-methyl-6-oxo-6,7-dihydro-5H-pyrrolo[2,3-d]pyrimidine-5-carboxamide], the “Maximum peak decrease” value (single oral dose 1 mpk P.O.) is on record as “B (Category B=SBP in SHRs 25-40 mmHg)”.

Take `CC1(c2ncccn2)C(=O)Nc2nc(-c3nn(CCC(F)(F)C(F)(F)F)c4ncccc34)nc(N)c21` (single isomer, unassigned) [Example 170, 4-Amino-5-Methyl-2-[1-(3,3,4,4,4-Pentafluorobutyl)-1H-Pyrazolo[3,4-B]Pyridin-3-yl]-5-Pyrimidin-2-yl-5,7-Dihydro-6H-Pyrrolo[2,3-D]Pyrimidin-6-One]: the “Maximum SBP reduction” value (dose 1.0 mpk) is 65 ± 13 mmHg. In addition, the “Maximum peak decrease” value (single oral dose 1 mpk P.O.) is “C (Category C=SBP in SHRs>40 mmHg)”.
